Data from patent US20240122876A1, “COMPOSITIONS AND METHODS FOR THE TREATMENT OF OCULAR DISORDERS” (Case Western Reserve University, priority 2021, published 2024).
“And” between values parts separate entries of the source, which are not always exact repeats. Equal entries are not always repeated. “Also recorded” adds a separate entry of the source.

Experiments:
RPE65 = RPE65 (Bos taurus (Bovine), UniProt Q28175); test: RPE65 retinoid isomerase activity assay (11-cis-retinol production by bovine RPE microsomes); assay type: biochemical; details: for IC50: inhibition of RPE65-mediated isomerization, decline in 11-cis-retinol production, bovine RPE microsomes
RPE65, sequence (Q28175 whole entry): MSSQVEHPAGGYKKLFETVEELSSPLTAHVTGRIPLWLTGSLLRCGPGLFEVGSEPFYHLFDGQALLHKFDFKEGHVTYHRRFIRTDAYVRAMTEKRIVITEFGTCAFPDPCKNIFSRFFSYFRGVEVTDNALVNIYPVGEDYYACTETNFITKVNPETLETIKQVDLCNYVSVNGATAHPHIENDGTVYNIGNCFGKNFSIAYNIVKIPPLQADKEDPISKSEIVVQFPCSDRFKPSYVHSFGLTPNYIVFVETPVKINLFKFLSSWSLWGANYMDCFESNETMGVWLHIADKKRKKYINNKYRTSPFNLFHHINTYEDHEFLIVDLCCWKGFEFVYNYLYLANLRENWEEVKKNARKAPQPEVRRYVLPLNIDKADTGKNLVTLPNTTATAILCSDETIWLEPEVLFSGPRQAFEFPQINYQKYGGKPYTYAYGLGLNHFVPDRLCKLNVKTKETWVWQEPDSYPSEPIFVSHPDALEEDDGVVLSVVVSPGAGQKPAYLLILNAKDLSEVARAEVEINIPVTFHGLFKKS
Protocol: After incubation at room temperature for 5 min, the resulting mixture was mixed with half microliter of all-trans-retinol (5 mM) in DMF, and then incubated at 37° C. for 1 h. The reaction was quenched by adding 400 μL of methanol (Fisher Chemical, Fair Lawn, NJ), and the products were extracted with 400 μL of hexanes.

[1] = Quantification of primary amine compound levels in serum and eyes of mice after intraperitoneal treatment (LC-MS/MS); assay type: in vivo; details: mouse, 380 nmol i.p.; for initial plasma (serum) level: 3 h
Protocol: Eight weeks old BL/6J mice were treated with 380 nmol visual cycle modulator 24, 49, 57, 58, 59 or emixustat in DMSO (50 μL) by intraperitoneal injection, and sacrificed at 3 h, 1 day, or 7 days later. Blood and eyeball samples were collected immediately. After clotting at room temperature for 30 min, the blood samples were centrifuged for 10 minutes at 17,000 g in a temperature-controlled benchtop centrifuge (Eppendorf AG). Each serum sample (100 μL) was carefully removed to avoid disturbing loose clots, precipitated with […] of pre-cooled methanol, and centrifuged at 17,000 g for 15 min at 4° C. The supernatant was carefully transferred to a SpinX centrifuge tube filter with a 0.45 μm cellulose acetate membrane (Costar, Salt Lake City, UT), and centrifuged at 7,000 g for 2 min. Filtered samples were dried under vacuum, reconstituted in 100 μL 50% methanol/water, and centrifuged at 17,000 g for 15 min at 4° C. The resulting supernatants were ready for Liquid Chromatography/Mass Spectrometry analyses. The two eyeballs from each mouse were homogenized in acetonitrile (2×800 μL). The resulting mixture was centrifuged at 17,000 g for 15 min at 4° C. The supernatant was dried under vacuum, reconstituted in 100 μl 50% methanol/water, and centrifuged at 17,000 g for 15 min at 4° C. Twenty microliters of the supernatant extracted from serum or eye samples was injected into an Ultimate 3000 HPLC system coupled with LXQ mass spectrometer (ThermoFisher Scientific, Waltham, MA) with an electrospray ionization unit.

[2] = RPE65 inhibition, ratio of IC50

In the case of `CCCC(CCC)COc1cc(F)cc(C(O)CCN)c1` (racemic) [Compound 26, (S/R)-3-amino-1-(3-fluoro-5-((2-propylpentyl)oxy)phenyl)propan-1-ol], the IC50 (RPE65) is reported as 0.184 ± 0.024 µM.

For `CCCC(CCC)COc1cc([C@H](O)CCN)ccc1F` [Compound 24, (R)-3-Amino-1-(4-fluoro-3-((2-propylpentyl)oxy)phenyl)propan-1-ol], the “distribution within ocular tissue” value [1] was “poorest distribution within ocular tissue”, the plasma half-life [1] was “longer plasma half-life” and the “initial plasma (serum) level” value [1] was “highest initial plasma levels”. For the same molecule, the “inhibitory potency / IC50 relative to (R)-MB-004” value (RPE65; [2]) was “twice; also recorded: approximately two-fold lower”, the “inhibitory potency relative to racemic emixustat” value (RPE65; [2]) was 3 times and the IC50 (RPE65) was 0.05 ± 0.009 µM.

In the case of `NCCC(O)c1cccc(OCC2CCC(F)(F)CC2)c1` (stereo not shown) [Compound 57, 3-amino-1-(3-((4,4-difluorocyclohexyl)methoxy)phenyl) propan-1-ol], the “distribution within ocular tissue” value [1] is reported as “further enhanced ocular distribution” and the IC50 (RPE65) is reported as 0.1 µM and 0.103 µM.

For `CC1=C(COc2cc(F)cc(C(O)CCN)c2)C(C)(C)CCC1` (stereo not shown) [Compound 54, 3-amino-1-(3-fluoro-5-((2,6,6-trimethylcyclohex-1-en-1-yl)methoxy)phenyl)propan-1-ol], the IC50 (RPE65) was 0.292 ± 0.089 µM.

Work on `NCCC(O)c1cc(F)cc(OCC2CCCCC2)c1` (stereo not shown) [Compound 50, 3-amino-1-(3-(cyclohexylmethoxy)-5-fluorophenyl)propan-1-ol] yielded an IC50 (RPE65) of 0.201 ± 0.023 µM.

Work on `CCCC(CCC)COc1cc(F)cc(C(O)CCN)c1` (racemic) [Compound 25, (S/R)-3-amino-1-(3-fluoro-5-((2-propylpentyl)oxy)phenyl)propan-1-ol] yielded an IC50 (RPE65) of 0.295 ± 0.132 µM.

For `CC1=C(COc2cc(C(O)CCN)ccc2F)C(C)(C)CCC1` (stereo not shown) [Compound 53, 3-amino-1-(4-fluoro-3-((2,6,6-trimethylcyclohex-1-en-1-yl)methoxy)phenyl)propan-1-ol], the IC50 (RPE65) was 0.284 ± 0.02 µM.

`CC1=C(COc2cccc([C@H](O)CCN)c2)C(C)(C)CCC1` [(R)-MB-001, reference compound] gave an IC50 (RPE65) of 0.323 ± 0.145 µM.

In the case of `NCCC(O)c1cc(OCC2CCCCC2)ccc1F` (stereo not shown) [Compound 51, 3-amino-1-(5-(cyclohexylmethoxy)-2-fluorophenyl)propan-1-ol], the IC50 (RPE65) is reported as 0.145 ± 0.009 µM.

Molecule `CCCC(CCC)COc1cccc([C@H](O)CCN)c1` [(R)-MB-004, reference compound] has an IC50 (RPE65) of 0.106 ± 0.016 µM.

`CCCC(CCC)COc1cc([C@@H](O)CCN)ccc1F` [Compound 23, (S)-3-Amino-1-(4-fluoro-3-((2-propylpentyl)oxy)phenyl)propan-1-ol] showed an IC50 (RPE65) of 0.177 ± 0.011 µM.

For `[2H]C([2H])(N)CC(O)c1cccc(OCC2CCC(F)(F)CC2)c1` (stereo not shown) [Compound 59, 3-amino-1-(3-((4,4-difluorocyclohexyl)methoxy)phenyl)propan-3,3-d2-1-ol], the IC50 (RPE65) was 0.269 ± 0.04 µM.

`CC1=C(COc2ccc(F)c(C(O)CCN)c2)C(C)(C)CCC1` (stereo not shown) [Compound 55, 3-amino-1-(2-fluoro-5-((2,6,6-trimethylcyclohex-1-en-1-yl)methoxy)phenyl)propan-1-ol] showed an IC50 (RPE65) of 0.124 ± 0.021 µM.

In the case of `CCCC(CCC)COc1ccc(F)c(C(O)CCN)c1` (racemic) [Compound 28, (S/R)-3-amino-1-(2-fluoro-5-((2-propylpentyl)oxy)phenyl)propan-1-ol], the IC50 (RPE65) is reported as 0.132 ± 0.019 µM.

For `NCCC(O)c1ccc(F)c(OCC2CCCCC2)c1` (stereo not shown) [Compound 49, 3-amino-1-(3-(cyclohexylmethoxy)-4-fluorophenyl)propan-1-ol], the “distribution within ocular tissue” value [1] was “poorest distribution within ocular tissue”, the “initial plasma (serum) level” value [1] was “highest initial plasma levels” and the IC50 (RPE65) was 0.095 ± 0.005 µM.

`CCCC(CCC)COc1ccc(F)c(C(O)CCN)c1` (racemic) [Compound 27, (S/R)-3-amino-1-(2-fluoro-5-((2-propylpentyl)oxy)phenyl)propan-1-ol] gave an IC50 (RPE65) of 0.157 ± 0.024 µM.

`CC1=C(COc2cccc(C(O)CCN)c2F)C(C)(C)CCC1` (stereo not shown) [Compound 56, 3-amino-1-(2-fluoro-3-((2,6,6-trimethylcyclohex-1-en-1-yl)methoxy)phenyl)propan-1-ol] gave an IC50 (RPE65) of 0.169 ± 0.013 µM.

In the case of `CCCC(CCC)COc1cccc(C(O)CCN)c1F` (racemic) [Compound 29, (S/R)-3-amino-1-(2-fluoro-3-((2-propylpentyl)oxy)phenyl)propan-1-ol], the IC50 (RPE65) is reported as 0.287 ± 0.283 µM.

With `NCCC(O)c1cccc(OCC2CCCCC2)c1F` (stereo not shown) [Compound 52, 3-amino-1-(3-(cyclohexylmethoxy)-2-fluorophenyl)propan-1-ol] the IC50 (RPE65) was 0.358 ± 0.042 µM.

Molecule `CCCC(CCC)COc1cccc(C(O)CCN)c1F` (racemic) [Compound 30, (S/R)-3-amino-1-(2-fluoro-3-((2-propylpentyl)oxy)phenyl)propan-1-ol] has an IC50 (RPE65) of 0.274 ± 0.047 µM.
